Laboratory results taken from patent US20170114030A1, “COMPOSITION WITH HIGH CONTENT OF CYCLIC DIPEPTIDE” (SUNTORY HOLDINGS LIMITED, priority 2014, published 2017).

System: plasma active GLP-1
Experiment: In vivo plasma active GLP-1 level-increasing action after oral administration
Parameters: species or system mice
Details: 10 mg/kg orally; for Plasma active GLP-1 level (relative value to control group as 100), Average value: male C57/BL6J mice, blood after 30 minutes, 0.5% CMC-Na group = 100; for Significant difference (p < 0.05) vs control group, plasma active GLP-1 level: mice, 30 minutes, Student's t-test
Protocol: In the Test Examples below, data were represented as average value±standard error. In Test Examples 1, 2, and 3, a Student's t-test was used for a statistical test, and in other Test Examples, one-way ANOVA was carried out for dispersion analysis followed by a multiple comparison test by using a Dunnet's test. […] All of these analyses were carried out by using an SPSS for Windows release 17.0 (manufactured by SPSS Inc.).
Among the cyclic dipeptides, cyclic dipeptides for which an in vitro GLP-1 secretion-accelerating action was found and highly lipid-soluble cyclic dipeptides were used in the following experiment. Seven-week-old male C57/BL6J mice were purchased from CLEA Japan, Inc. for use, and they were subjected to an experiment after 1 week of a habituation period. Each animal was grown in an animal room with an air conditioning system (temperature: 23.5±1.0° C., humidity: 55±10 RH %, air ventilation: 12 to 15 times/hour, illumination: from 7:00 to 19:00/day).
After the habituation period, the mice were subjected to 5.5 hours of food deprivation and 2 hours of water deprivation. Thereafter, a cyclic dipeptide dissolved or suspended in a 0.5% CMC-Na aqueous solution in 10 mg/kg was orally administered to each mouse forcibly. After 30 minutes, the blood was collected from the abdominal vena cava under anesthesia, and 1 μL of heparin sodium and 1 μL of 10 mM Sitagliptin phosphate were added to each collected blood, which was then subjected to centrifugation at 8000 rpm for 10 minutes to recover the plasma, and the plasma active GLP-1 level was measured by using the ELISA kit. In the analysis, the active GLP-1 level for a group administered with 0.5% CMC-Na aqueous solution was defined as 100, and relative values thereto were used.
In each Table, cyclic dipeptides for which an in vivo plasma active GLP-1 level-increasing action was found and was not found are listed.

CC(C)C1NC(=O)C(C(C)C)NC1=O (stereo not shown) [compound 11]
Plasma active GLP-1 level (relative value to control group as 100), Average value (Experiment 4): 100 | Significant difference (p < 0.05) vs control group, plasma active GLP-1 level (Experiment 4): No

CCC(C)C1NC(=O)C(C(C)CC)NC1=O (stereo not shown) [compound 14]
Plasma active GLP-1 level (relative value to control group as 100), Average value (Experiment 4): 105 | Significant difference (p < 0.05) vs control group, plasma active GLP-1 level (Experiment 4): No

CC(C)CC1NC(=O)C(CC(C)C)NC1=O (stereo not shown) [compound 15]
Plasma active GLP-1 level (relative value to control group as 100), Average value (Experiment 4): 95 | Significant difference (p < 0.05) vs control group, plasma active GLP-1 level (Experiment 4): No

CC(C)CC1NC(=O)C(Cc2ccccc2)NC1=O (stereo not shown) [compound 16]
Plasma active GLP-1 level (relative value to control group as 100), Average value (Experiment 4): 105 | Significant difference (p < 0.05) vs control group, plasma active GLP-1 level (Experiment 4): No

O=C1NC(Cc2ccccc2)C(=O)NC1Cc1ccccc1 (stereo not shown) [compound 17]
Plasma active GLP-1 level (relative value to control group as 100), Average value (Experiment 3): 203 | Significant difference (p < 0.05) vs control group, plasma active GLP-1 level (Experiment 3): Yes

O=C1NC(Cc2c[nH]c3ccccc23)C(=O)NC1Cc1ccc(O)cc1 (stereo not shown) [compound 22]
Plasma active GLP-1 level (relative value to control group as 100), Average value (Experiment 3): 203 | Significant difference (p < 0.05) vs control group, plasma active GLP-1 level (Experiment 3): Yes

O=C1NC(Cc2ccc(O)cc2)C(=O)NC1CO (stereo not shown) [compound 29]
Plasma active GLP-1 level (relative value to control group as 100), Average value (Experiment 4): 95 | Significant difference (p < 0.05) vs control group, plasma active GLP-1 level (Experiment 4): No

O=C1NC(Cc2ccc(O)cc2)C(=O)N2CCCC12 (stereo not shown) [compound 30]
Plasma active GLP-1 level (relative value to control group as 100), Average value (Experiment 4): 95 | Significant difference (p < 0.05) vs control group, plasma active GLP-1 level (Experiment 4): No

O=C(O)CC1NC(=O)C(Cc2ccccc2)NC1=O (stereo not shown) [compound 33]
Plasma active GLP-1 level (relative value to control group as 100), Average value (Experiment 4): 90 | Significant difference (p < 0.05) vs control group, plasma active GLP-1 level (Experiment 4): No

O=C1NC(Cc2c[nH]cn2)C(=O)NC1Cc1ccccc1 (stereo not shown) [compound 38]
Plasma active GLP-1 level (relative value to control group as 100), Average value (Experiment 3): 264 | Significant difference (p < 0.05) vs control group, plasma active GLP-1 level (Experiment 3): Yes

CC(C)CC1NC(=O)C(Cc2c[nH]c3ccccc23)NC1=O (stereo not shown) [compound 39]
Plasma active GLP-1 level (relative value to control group as 100), Average value (Experiment 3): 229 | Significant difference (p < 0.05) vs control group, plasma active GLP-1 level (Experiment 3): Yes

CC(C)CC1NC(=O)C(C)NC1=O (stereo not shown) [compound 44]
Plasma active GLP-1 level (relative value to control group as 100), Average value (Experiment 3): 255 | Significant difference (p < 0.05) vs control group, plasma active GLP-1 level (Experiment 3): Yes

O=C1NC(Cc2ccc(O)cc2)C(=O)NC1Cc1ccc(O)cc1 (stereo not shown) [compound 49]
Plasma active GLP-1 level (relative value to control group as 100), Average value (Experiment 5): 100 | Significant difference (p < 0.05) vs control group, plasma active GLP-1 level (Experiment 5): No

CC(C)C1NC(=O)C(Cc2c[nH]c3ccccc23)NC1=O (stereo not shown) [compound 61]
Plasma active GLP-1 level (relative value to control group as 100), Average value (Experiment 3): 117 | Significant difference (p < 0.05) vs control group, plasma active GLP-1 level (Experiment 3): No

CSCCC1NC(=O)C(CC(C)C)NC1=O (stereo not shown) [compound 72]
Plasma active GLP-1 level (relative value to control group as 100), Average value (Experiment 6): 90 | Significant difference (p < 0.05) vs control group, plasma active GLP-1 level (Experiment 6): No

O=C1NC(Cc2c[nH]c3ccccc23)C(=O)NC1Cc1c[nH]c2ccccc12 (stereo not shown) [compound 75]
Plasma active GLP-1 level (relative value to control group as 100), Average value (Experiment 3): 229 | Significant difference (p < 0.05) vs control group, plasma active GLP-1 level (Experiment 3): Yes

CC(O)C1NC(=O)C(Cc2c[nH]c3ccccc23)NC1=O (stereo not shown) [compound 79]
Plasma active GLP-1 level (relative value to control group as 100), Average value (Experiment 6): 100 | Significant difference (p < 0.05) vs control group, plasma active GLP-1 level (Experiment 6): No

NC(=O)CCC1NC(=O)C(Cc2c[nH]c3ccccc23)NC1=O (stereo not shown) [compound 82]
Plasma active GLP-1 level (relative value to control group as 100), Average value (Experiment 6): 90 | Significant difference (p < 0.05) vs control group, plasma active GLP-1 level (Experiment 6): No

O=C(O)CCC1NC(=O)C(Cc2ccc(O)cc2)NC1=O (stereo not shown) [compound 87]
Plasma active GLP-1 level (relative value to control group as 100), Average value (Experiment 7): 141 | Significant difference (p < 0.05) vs control group, plasma active GLP-1 level (Experiment 7): No

CC(C)C1NC(=O)C(Cc2ccc(O)cc2)NC1=O (stereo not shown) [compound 88]
Plasma active GLP-1 level (relative value to control group as 100), Average value (Experiment 7): 385 | Significant difference (p < 0.05) vs control group, plasma active GLP-1 level (Experiment 7): Yes

CC(O)C1NC(=O)C(Cc2ccc(O)cc2)NC1=O (stereo not shown) [compound 90]
Plasma active GLP-1 level (relative value to control group as 100), Average value (Experiment 7): 466 | Significant difference (p < 0.05) vs control group, plasma active GLP-1 level (Experiment 7): Yes

O=C(O)CC1NC(=O)C(Cc2ccc(O)cc2)NC1=O (stereo not shown) [compound 91]
Plasma active GLP-1 level (relative value to control group as 100), Average value (Experiment 7): 181 | Significant difference (p < 0.05) vs control group, plasma active GLP-1 level (Experiment 7): No

NC(=O)CC1NC(=O)C(Cc2ccc(O)cc2)NC1=O (stereo not shown) [compound 92]
Plasma active GLP-1 level (relative value to control group as 100), Average value (Experiment 7): 181 | Significant difference (p < 0.05) vs control group, plasma active GLP-1 level (Experiment 7): No

NC(=O)CCC1NC(=O)C(Cc2ccc(O)cc2)NC1=O (stereo not shown) [compound 93]
Plasma active GLP-1 level (relative value to control group as 100), Average value (Experiment 7): 344 | Significant difference (p < 0.05) vs control group, plasma active GLP-1 level (Experiment 7): Yes

CC(C)CC1NC(=O)C(Cc2c[nH]cn2)NC1=O (stereo not shown) [compound 103]
Plasma active GLP-1 level (relative value to control group as 100), Average value (Experiment 8): 94 | Significant difference (p < 0.05) vs control group, plasma active GLP-1 level (Experiment 8): No

CSCCC1NC(=O)C(C)NC1=O (stereo not shown) [compound 125]
Plasma active GLP-1 level (relative value to control group as 100), Average value (Experiment 9): 133

CSCCC1NC(=O)CNC1=O (stereo not shown) [compound 127]
Plasma active GLP-1 level (relative value to control group as 100), Average value (Experiment 9): 124 | Significant difference (p < 0.05) vs control group, plasma active GLP-1 level (Experiment 9): Yes

CCC(C)C1NC(=O)C(CO)NC1=O (stereo not shown) [compound 133]
Plasma active GLP-1 level (relative value to control group as 100), Average value (Experiment 9): 133 | Significant difference (p < 0.05) vs control group, plasma active GLP-1 level (Experiment 9): Yes

CC(C)C1NC(=O)C(CC(N)=O)NC1=O (stereo not shown) [compound 141]
Plasma active GLP-1 level (relative value to control group as 100), Average value (Experiment 10): 191 | Significant difference (p < 0.05) vs control group, plasma active GLP-1 level (Experiment 10): Yes

CCC(C)C1NC(=O)C(Cc2cnc[nH]2)NC1=O (stereo not shown) [compound 148]
Plasma active GLP-1 level (relative value to control group as 100), Average value (Experiment 10): 259 | Significant difference (p < 0.05) vs control group, plasma active GLP-1 level (Experiment 10): Yes

CCC(C)C1NC(=O)C(CCCCN)NC1=O (stereo not shown) [compound 150]
Plasma active GLP-1 level (relative value to control group as 100), Average value (Experiment 10): 282 | Significant difference (p < 0.05) vs control group, plasma active GLP-1 level (Experiment 10): Yes

CC(C)C1NC(=O)CNC1=O (stereo not shown) [compound 155]
Plasma active GLP-1 level (relative value to control group as 100), Average value (Experiment 10): 55 | Significant difference (p < 0.05) vs control group, plasma active GLP-1 level (Experiment 10): No

CCC(C)C1NC(=O)C(C(C)O)NC1=O (stereo not shown) [compound 161]
Plasma active GLP-1 level (relative value to control group as 100), Average value (Experiment 10): 282 | Significant difference (p < 0.05) vs control group, plasma active GLP-1 level (Experiment 10): Yes

CCC(C)C1NC(=O)C(CC(=O)O)NC1=O (stereo not shown) [compound 162]
Plasma active GLP-1 level (relative value to control group as 100), Average value (Experiment 10): 259 | Significant difference (p < 0.05) vs control group, plasma active GLP-1 level (Experiment 10): Yes

CCC(C)C1NC(=O)C(CC(N)=O)NC1=O (stereo not shown) [compound 163]
Plasma active GLP-1 level (relative value to control group as 100), Average value (Experiment 10): 327 | Significant difference (p < 0.05) vs control group, plasma active GLP-1 level (Experiment 10): Yes

CSCCC1NC(=O)C(C(C)O)NC1=O (stereo not shown) [compound 169]
Plasma active GLP-1 level (relative value to control group as 100), Average value (Experiment 10): 282 | Significant difference (p < 0.05) vs control group, plasma active GLP-1 level (Experiment 10): Yes

O=C1NC(CS)C(=O)NC1CO (stereo not shown) [compound 180]
Plasma active GLP-1 level (relative value to control group as 100), Average value (Experiment 10): 259 | Significant difference (p < 0.05) vs control group, plasma active GLP-1 level (Experiment 10): Yes
